Test results as given in patent US20180286508A1, “DETERMINATION OF FAVORABLE DATE(S) FOR THERAPEUTIC TREATMENT DELIVERY” (Mayo Foundation for Medical Education and Research, priority 2015, published 2018).
Several values for one entry are separate records, joined by “and”; a condition that tells them apart may be missing. Equal entries are not always repeated.

Assays:
[1] = tested on: patients with unresectable stage IV malignant melanoma; experiment: Clinical trial of timed TMZ chemotherapy (timed on CRP oscillation) in stage IV melanoma patients; format: in vivo, human
From the text: In an example clinical trial described herein, the patient population included patients with unresectable stage IV malignant melanoma. Eligible patients had unresectable, histologically confirmed stage IV disease, age over 18 years, measurable disease as defined by the Response Evaluation Criteria in Solid Tumors (RECIST), Eastern Cooperative Oncology Group (ECOG) performance status (PS) of 0-2, and life expectancy ≥3 months. Both newly diagnosed, previously untreated patients, as well as patients who have had prior therapy for their metastatic disease were enrolled.
Treatment was initiated with temozolomide (TMZ) 150 mg/m^2 on days 1-5 on cycle 1 and the dose was increased to 200 mg/m^2 for all subsequent cycles if tolerated. Patients were treated every 4 weeks until progression, unacceptable toxicity or patient refusal. Prior to initiation of first chemotherapy cycle, eligible patients underwent peripheral blood testing for immunological biomarkers (immune variables) every 2-3 days for a period of two weeks. The blood samples were tested for a total of 52 variables; that is, 52 measurements of cytokine concentrations and cell counts in blood samples.
The time series of six CRP concentration measurements was fitted to a sine curve. The curve was then extrapolated for two periods and the next consecutive peaks of CRP concentration were predicted. Based on the periodicity of CRP oscillations, TMZ chemotherapy was initiated prior to the estimated time of the next CPR peak, or on day 14 post-registration if the peak could not be identified.
The purpose of the curve fitting analysis is to determine whether any of the measured immune variables change in a predictable fashion following a cyclical pattern (dynamic equilibrium of immunity and cancer). Therefore, the goal of the curve fitting analysis is to assess whether concentrations of plasma cytokines/chemokines and immune cells fluctuate, and if so, to determine whether these fluctuations follow a mathematically predictable cyclical pattern. To that end, the plasma levels for the 52 immune variables ([…] different cytokines/chemokines/growth factors and the percentage of 22 immune cell subsets) in serial blood samples collected every 2-3 days prior to initiation of TMZ therapy were measured in 10 patients with metastatic malignant melanoma. […] Technical reproducibility was assessed by the coefficient of variation among duplicates (average coefficient of variation was 5.13% for 1593 data points).

[2] = tested on: patients with metastatic melanoma (stage IV); experiment: Phase II clinical trial MC1076 of timed administration of TMZ; format: in vivo, human; conditions: for number of patients with PFS >4 months: 17 patients
From the text: Eligible patients had unresectable, histologically confirmed stage IV disease, age over 18 years, measurable disease as defined by the Response Evaluation Criteria in Solid Tumors (RECIST), Eastern Cooperative Oncology Group (ECOG) performance status of 0-2, and life expectancy≥3 months (See Table 10). Both previously untreated patients and patients who have had prior therapy for their metastatic disease (excluding prior exposure to TMZ) were eligible. All patients provided signed informed written consent, and the study was approved by the Mayo Clinic Rochester Institutional Review Board. The TMZ dose was 150 mg/m2 on days 1-5 of cycle 1 and was increased to 200 mg/m2 on days 1-5 each month for all subsequent cycles if well tolerated. Patients were treated every 28 days until progression, unacceptable toxicity or patient refusal. Prior to initiation of first chemotherapy cycle, eligible patients underwent serial daily peripheral blood testing for 10 days of 69 immune biomarkers (42 cytokines, and 27 immune cell subtypes) per time point/patient. At the end of the sample collections, all data was jointly analyzed and a day for individualized TMZ delivery was calculated according to the proposed model (below). Patients received their therapy during the time, predicted by the model. All patients were followed for clinical outcomes.
Time-dependent profiles of blood concentration of IL-12p70, CD197/CD206, IL-1ra were built based on a series of pre-treatment measurements. The data was fitted to a sine curve and the extrapolated for a period of 10 days. Chemotherapy was initiated on the day when the extrapolated value of the combination of these immune parameters was at maximum.
The MC1076 study was designed to assess the anti-tumor activity of timed administration of TMZ. A two-stage phase II clinical trial design will be used to test the hypothesis that the 4 month PFS rate is at most 45% against the alternative hypothesis that the 4 month PFS rate is at least 65%. Progression-free survival was defined as the time from registration to documentation of disease progression or death without disease progression documented.
Analysis of infradian (multi-day) dynamics in systemic immunity of patients with metastatic melanoma. Based on data, both published and from our lab, we hypothesized that the anti-tumor systemic immune response in patients with cancer is not a static but a dynamic event. In order to study the global temporal behavior of systemic anti-tumor immunity, we conducted a phase II clinical trial (MC1076; NCT01328535). In this study, patients with metastatic melanoma underwent a period of immunological monitoring consisting of 10 daily PB collections (10 mL) over 12 days prior to initiation of therapy with TMZ. There was no blood collection on weekend days. At the end of the sample collection period, samples were batched analyzed (to minimize inter-assay variability for a given patient) for measurement of dynamic changes of plasma cytokines and immune cell subsets using established, standardized, and Good Laboratory Practice (GLP)-validated methodology in our laboratory.^35 Time-dependent profiles of immune variables (cytokines and immune cell subsets) were then analyzed and an optimal day for initiation of TMZ therapy was prospectively computed by the algorithm described below. […]

[3] = standard TMZ doses, 200 mg/m2 daily over 5 days, cycles every 28 days; cited from earlier work
[4] = tested on: non proliferating peripheral blood lymphocytes; conditions: therapeutical doses, in vitro; cited from earlier work
[5] = tested on: CD8+ effector T-cells and dendritic cells (DCs); conditions: therapeutical doses, in vitro; cited from earlier work
[6] = LMR <1 on the day of TMZ initiation
[7] = LMR >1 on the day of TMZ initiation

In the case of Cn1nnc2c(C(N)=O)ncn2c1=O [TMZ, temozolomide], the PFS ([1]; Table 4, one line per patient, 8 patients with metastatic cutaneous melanoma, TMZ 150 to 200 mg/m^2 days 1-5 every 4 weeks) is reported as 70 days and 68 days and 37 days and 916 days and 748 days and 132 days and 91 days and 77 days, the PFS ([1]; Table 6, one line per patient, same 8 melanoma patients) is reported as 37 days and 91 days and 32 days and 77 days and 916 days and 841 days and 68 days and 70 days and the “average PFS” value ([1]; four patients with sum of ranks of IL12p70 and CD197/CD206 above 15) is reported as 68 days. The “average PFS” value ([1]; four patients with sum of ranks of IL12p70 and CD197/CD206 below 15) was 466 days, the PFS ([1]; two patients with disorganized (non-curve-fitting) anti-tumor immune responses) was 71 days and 74 days and the “number of patients with PFS <4 months” value [2, 6] was 7. For the same compound, the “number of patients with PFS >4 months” value [2, 6] was 1, the “number of patients with PFS <4 months” value [2, 7] was 3 and the “number of patients with PFS >4 months” value [2, 7] was 6. The PFS ([2]; Table 11, one line per patient, 24 patients, time from registration to progression, CR = complete response) was 644 days and 242 days and 184 days and 47 days and 83 days and 301 days and 136 days and 752 days and 102 days and 78 days and 39 days and 107 days and 72 days (2×) and 53 days and 48 days and 80 days and 73 days and 130 days and 77 days and 133 days and 198 days, the serum concentrations [3] was “up to 50 μM” and the “impairment of non proliferating peripheral blood lymphocytes” value [4] was “did not impair”. The “impairment of the function of CD8+ effector T-cells and dendritic cells” value [5] was “did not impair”.
